Tests used:
[1] = system: HCT-116; test: Tested for antiproliferative activity against HCT116 colorectal human carcinoma cell using WST-1 assay; format: functional, cell-based
[2] = Tested for inhibitory concentration required to inhibit 50% of histone deacetylase (HDAC) purified from human T cell leukemia Jurkat cell
[3] = Tested for inhibitory concentration required to inhibit 50% of histone deacetylase (HDAC) from human T cell leukemia Jurkat cell; format: cell-based

SMILES	IC50 [1]	IC50 [2]	IC50 [3]
O=C(NCC1CCC(C(=O)NO)CC1)c1ccc(-c2ccccc2)cc1 (stereo not drawn)	4.7 µM	0.31 µM	
O=C(NO)C1CCC(CNS(=O)(=O)c2ccccc2)CC1 (stereo not drawn)	77.9 µM		
O=C(NCc1ccc(C(=O)NO)cc1)NC12CC3CC(CC(C3)C1)C2	112 µM		
O=C(NCC1CCC(C(=O)NO)CC1)NC12CC3CC(CC(C3)C1)C2 (stereo not drawn)	20.9 µM		
CC(/C=C/C(=O)NO)=C\[C@@H](C)C(=O)c1ccc(N(C)C)cc1 [TRICHOSTATIN]			0.0033 µM

Now from value to molecule:

IC50 [1]	IC50 [2]	IC50 [3]	SMILES
3.2 µM	0.24 µM		O=C(NO)c1ccc(CNC(=O)c2ccc(-c3ccccc3)cc2)cc1
0.7 µM	0.044 µM		O=C(NO)c1ccc(CNC(=O)c2ccc3ccccc3c2)cc1
9.7 µM	0.83 µM		O=C(NO)c1ccc(CNC(=O)c2cccc3ccccc23)cc1
5.4 µM			Nc1ccccc1NC(=O)c1ccc(CNC(=O)OCc2cccnc2)cc1 [ENTINOSTAT]
